Measured values as given in ChEMBL document CHEMBL6071166, “Maduraflavacins A-E, Unusual Phenyl Polyene Metabolites Produced by a Rare Marine-Derived Actinomadura sp” (2024).
The source made the active and inactive calls. No cut-off for these calls is given here.

Experiments:
Micrococcus luteus [1] = assay: Antibacterial activity against Micrococcus luteus at 0.005 to 1 mg/ml by agar diffusion assay; format: functional, organism-based; settings: dose 0.005-1 mg/ml
Staphylococcus aureus [2] = assay: Antibacterial activity against Staphylococcus aureus Sau 16339 assessed as inhibition zone at 0.5 mg/ml by agar diffusion assay; format: functional; settings: read-out: IZ
Micrococcus luteus [3] = assay: Antibacterial activity against Micrococcus luteus assessed as inhibition zone at 0.5 mg/ml by agar diffusion assay; format: functional; settings: read-out: IZ
Staphylococcus aureus [4] = assay: Antibacterial activity against Staphylococcus aureus Sau 16339 at 0.005 to 1 mg/ml by agar diffusion assay; format: functional, organism-based; settings: dose 0.005-1 mg/ml

CC(/C=C/C=C(C)/C=C/C(=O)N[C@@H]1O[C@H](CO)[C@@H](O)[C@H](O[C@@H]2O[C@H](CO)[C@@H](O)[C@H](O[C@@H]3O[C@H](CO[C@@H]4O[C@H](CO)[C@@H](O)[C@H](O)[C@H]4O)[C@@H](O)[C@H](O)[C@H]3O)[C@H]2O)[C@H]1O)=C\C=C\c1ccccc1
Activity (Micrococcus luteus [1]): inactive
zone of inhibition at 500 µg/mL (Staphylococcus aureus [2]): 4 mm

CC(/C=C/C=C/C=C/C(=O)N[C@@H]1O[C@H](CO)[C@@H](O)[C@H](O[C@@H]2O[C@H](CO)[C@@H](O)[C@H](O[C@@H]3O[C@H](CO[C@@H]4O[C@H](CO)[C@@H](O)[C@H](O)[C@H]4O)[C@@H](O)[C@H](O)[C@H]3O)[C@H]2O)[C@H]1O)=C\C=C\c1ccccc1
zone of inhibition at 500 µg/mL (Micrococcus luteus [3]): 3 mm
Activity (Staphylococcus aureus [4]): inactive

CC(/C=C/C(=O)N[C@@H]1O[C@H](CO)[C@@H](O)[C@H](O[C@@H]2O[C@H](CO)[C@@H](O)[C@H](O[C@@H]3O[C@H](CO[C@@H]4O[C@H](CO)[C@@H](O)[C@H](O)[C@H]4O)[C@@H](O)[C@H](O)[C@H]3O)[C@H]2O)[C@H]1O)=C\C=C\c1ccccc1
Activity (Micrococcus luteus [1]): inactive
Activity (Staphylococcus aureus [4]): inactive

COC(=O)/C=C/C=C/C=C/C(C)=C/C=C/c1ccccc1
Activity (Micrococcus luteus [1]): inactive
Activity (Staphylococcus aureus [4]): inactive

CN(C)[C@@H]1C(O)=C(C(N)=O)C(=O)[C@@]2(O)C(O)=C3C(=O)c4c(O)cccc4[C@@](C)(O)[C@H]3C[C@@H]12 [TETRACYCLINE]
zone of inhibition at 500 µg/mL (Micrococcus luteus [3]): 15 mm
zone of inhibition at 500 µg/mL (Staphylococcus aureus [2]): 12 mm

COC(=O)/C=C/C(C)=C/C=C/C(C)=C/C=C/c1ccccc1
Activity (Micrococcus luteus [1]): inactive
Activity (Staphylococcus aureus [4]): inactive
